Reference: patent US5081284A, “Proteinase inhibitor” (Suntory Limited, priority 1989, dated 1992)
Where two headings read alike, the source gives them in different places.

What was measured:
papain = molecular target: T1, papain (Carica papaya, UniProt P00784); assay: Anti-papain activity (casein hydrolysis, Lowry-Folin method); type: biochemical
T1 sequence (P00784 134-345): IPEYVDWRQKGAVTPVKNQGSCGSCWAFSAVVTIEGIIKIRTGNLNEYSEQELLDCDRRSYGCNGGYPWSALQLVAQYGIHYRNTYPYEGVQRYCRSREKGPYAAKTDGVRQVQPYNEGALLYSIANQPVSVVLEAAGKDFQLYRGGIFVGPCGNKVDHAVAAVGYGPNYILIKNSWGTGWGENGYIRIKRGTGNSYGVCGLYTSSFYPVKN
Experimental: (§1) A mixture of a test compound of the present invention, papain (0.015 units) and a citrate buffer solution (20 mM, pH=6.2,1 ml) containing EDTA (0.88 mg) was preincubated at 30° C. for 5 minutes and a substrate solution (1 ml) was added to start the reaction. The substrate was a 1% solution of casein in the citrate buffer. The reaction was performed at 30° C. for 20 minutes. The reaction was quenched by adding 6.5% trichloroacetic acid (3 ml) to the reaction solution. The amount of casein that had been hydrolyzed enzymatically in the trichloroacetic acid soluble fraction was measured by the Lowry-Folin method and the inhibitory activity of the test compound was determined by comparison with the control solution.
as §1, with “pH=6.2, 1” for “pH=6.2,1”

calpain I = molecular target: T2, calpain I (Homo sapiens, UniProt P07384); assay: Anti-calpain activity, calpain I (casein hydrolysis, Ross-Schatz method); type: biochemical
T2 sequence (P07384 1-714): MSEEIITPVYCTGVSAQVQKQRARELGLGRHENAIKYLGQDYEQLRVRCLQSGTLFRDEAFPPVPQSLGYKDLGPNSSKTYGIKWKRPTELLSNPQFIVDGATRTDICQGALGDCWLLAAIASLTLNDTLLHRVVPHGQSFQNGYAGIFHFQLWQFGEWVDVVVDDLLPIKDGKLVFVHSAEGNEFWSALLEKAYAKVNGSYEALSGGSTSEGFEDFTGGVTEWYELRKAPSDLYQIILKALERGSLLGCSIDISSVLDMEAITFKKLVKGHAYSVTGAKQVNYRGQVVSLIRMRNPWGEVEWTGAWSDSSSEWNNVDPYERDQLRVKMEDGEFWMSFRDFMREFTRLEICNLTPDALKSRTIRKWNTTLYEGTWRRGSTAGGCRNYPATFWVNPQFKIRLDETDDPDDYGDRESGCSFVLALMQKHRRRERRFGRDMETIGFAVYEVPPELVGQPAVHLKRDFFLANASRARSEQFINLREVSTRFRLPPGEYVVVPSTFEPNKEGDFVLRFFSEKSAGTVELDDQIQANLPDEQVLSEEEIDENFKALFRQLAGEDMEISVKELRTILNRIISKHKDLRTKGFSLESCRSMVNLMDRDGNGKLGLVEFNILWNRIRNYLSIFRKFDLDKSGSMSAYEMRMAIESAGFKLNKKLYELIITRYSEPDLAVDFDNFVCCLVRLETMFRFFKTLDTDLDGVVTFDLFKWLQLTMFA
T2 sequence (P04632 1-268 partner): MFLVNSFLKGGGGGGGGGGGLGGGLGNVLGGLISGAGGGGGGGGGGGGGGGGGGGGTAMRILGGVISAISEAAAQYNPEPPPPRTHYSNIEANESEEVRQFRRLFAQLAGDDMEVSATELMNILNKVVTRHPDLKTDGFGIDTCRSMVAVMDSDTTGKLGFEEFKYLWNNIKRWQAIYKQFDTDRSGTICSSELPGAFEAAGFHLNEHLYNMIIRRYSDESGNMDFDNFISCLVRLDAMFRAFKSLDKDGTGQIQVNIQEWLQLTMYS

calpain II = molecular target: T3, calpain II (Homo sapiens, UniProt P17655); assay: Anti-calpain activity, calpain II (casein hydrolysis, Ross-Schatz method); type: biochemical
T3 sequence (P17655 1-700): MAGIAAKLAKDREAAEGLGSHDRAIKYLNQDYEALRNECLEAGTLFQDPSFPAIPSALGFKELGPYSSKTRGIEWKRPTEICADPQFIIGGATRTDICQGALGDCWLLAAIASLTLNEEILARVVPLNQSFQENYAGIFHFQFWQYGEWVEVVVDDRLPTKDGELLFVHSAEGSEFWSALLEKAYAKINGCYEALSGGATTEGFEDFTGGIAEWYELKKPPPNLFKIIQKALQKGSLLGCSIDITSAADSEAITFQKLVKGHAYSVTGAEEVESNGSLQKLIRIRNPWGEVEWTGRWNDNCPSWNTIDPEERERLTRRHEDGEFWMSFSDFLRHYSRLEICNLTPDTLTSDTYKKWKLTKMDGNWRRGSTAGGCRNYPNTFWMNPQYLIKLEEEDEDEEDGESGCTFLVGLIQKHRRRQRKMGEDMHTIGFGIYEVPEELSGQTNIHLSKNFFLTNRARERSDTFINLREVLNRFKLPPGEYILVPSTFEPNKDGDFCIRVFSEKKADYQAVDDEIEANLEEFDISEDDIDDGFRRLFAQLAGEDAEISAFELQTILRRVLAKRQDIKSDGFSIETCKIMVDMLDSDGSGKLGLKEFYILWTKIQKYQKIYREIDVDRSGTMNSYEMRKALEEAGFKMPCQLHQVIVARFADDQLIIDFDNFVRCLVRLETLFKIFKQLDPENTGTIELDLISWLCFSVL
T3 sequence (P04632 1-268 partner): T2 sequence (P04632 1-268 partner)

cathepsin B = cathepsin B (Bos taurus, UniProt P07688); assay: Anti-cathepsin activity (cathepsin B, benzyloxycarbonyl-L-lysine-p-nitrophenyl ester substrate); type: biochemical, bovine
Experimental: A mixture of a test compound of the present invention and an acetate buffer solution (25 mM, pH=5.1, with 1 mM EDTA, 3.15 ml) containing a substrate (benzyloxycarbonyl-L-lysine-p-nitrophenyl ester, 0.114 mg) was preincubated at 30° C. for 1 minute. To the mixture, a solution (0.05 ml) of cathepsin B (derived from bovine spleen; product of Sigma; 0.05 units) in the acetate buffer was added to start the reaction. Immediately after the start of reaction, the change in absorbance at 326 nm was measured and the inhibitory activity of the test compound was determined by comparison with the control solution.

[1] = Table 5 (Example 29), pH 6.2, 30° C., 20 minutes, casein, read-out: Inhibitory activity toward papain, IC50
[2] = Table 6 (Example 29), pH 7.5, 30° C., 30 minutes, casein, read-out: Inhibitory activity toward calpain I, IC50
[3] = Table 7 (Example 29), pH 7.5, 30° C., 30 minutes, casein, read-out: Inhibitory activity toward calpain II, IC50
[4] = Table 8 (Example 29), pH 5.1, 30° C., from bovine spleen, read-out: Inhibitory activity toward cathepsin B, IC50

| Compound | IC50 (papain; [1]) | IC50 (calpain I; [2]) | IC50 (calpain II; [3]) | IC50 (cathepsin B; [4]) | IC50 (papain) | IC50 (calpain I) | IC50 (calpain II) | IC50 (cathepsin B) |
| --- | --- | --- | --- | --- | --- | --- | --- | --- |
| CCCC[C@@H](C=O)NC(=O)[C@H](CC(C)C)NC(=O)CC(C)C [Example 3, N-isovaleryl-L-leucyl-L-norleucinal] | 0.12 µM | 0.1 µM | 0.13 µM | 0.51 µM |  |  |  |  |
| CCCC[C@@H](C=O)NC(=O)[C@H](CC(C)C)NC(=O)OCc1ccc([N+](=O)[O-])cc1 [Example 8, N-(p-nitrobenzyloxycarbonyl)-L-leucyl-L-norleucinal] | 0.031 µM | 0.092 µM | 0.13 µM | 0.099 µM |  |  |  |  |
| CCCC[C@@H](C=O)NC(=O)[C@H](CC(C)C)NC(=O)OCc1ccc(OC)cc1 [Example 7, N-(p-methoxybenzyloxycarbonyl)-L-leucyl-L-norleucinal] | 0.25 µM | 0.1 µM | 0.13 µM | 0.15 µM |  |  |  |  |
| CCCC[C@@H](C=O)NC(=O)[C@H](CC(C)C)NC(=O)OCC(Cl)(Cl)Cl [Example 10, N-(2,2,2-trichloroethyloxycarbonyl)-L-leucyl-L-norleucinal] | 0.26 µM | 0.096 µM |  | 0.33 µM |  |  |  |  |
| CCCC[C@@H](C=O)NC(=O)[C@H](CC(C)C)NP(=S)(c1ccccc1)c1ccccc1 [Example 14, N-diphenylphosphonothioyl-L-leucyl-L-norleucinal] |  |  |  |  | 0.17 µM | 0.09 µM | 0.12 µM | 0.079 µM |
| CCCC[C@@H](C=O)NC(=O)[C@H](CC(C)C)NC(C)=CC(=O)c1ccccc1 [Example 16, N-(2-benzoyl-1-methylvinyl)-L-leucyl-L-norleucinal] | 0.096 µM | 0.4 µM |  | 7 µM |  |  |  |  |
| CCCC[C@@H](C=O)NC(=O)[C@H](CC(C)C)NC(=O)OC(C)(C)C [Example 4, N-(t-butyloxycarbonyl)-L-leucyl-L-norleucinal] |  | 0.03 µM | 0.12 µM | 0.058 µM |  |  |  |  |
| CCCC[C@@H](C=O)NC(=O)[C@H](CC(C)C)NC(=O)OCc1ccccc1Cl [Example 9, N-(o-chlorobenzyloxycarbonyl)-L-leucyl-L-norleucinal] | 0.16 µM | 0.11 µM | 0.13 µM | 0.14 µM |  |  |  |  |
| CCCC[C@@H](C=O)NC(=O)[C@H](CC(C)C)NC(=O)OCc1ccc(Cl)cc1 [Example 6, N-(p-chlorobenzyloxycarbonyl)-L-leucyl-L-norleucinal] | 0.058 µM | 0.087 µM | 0.13 µM | 0.07 µM |  |  |  |  |
